Tests used:
[1] = tested on: S. lividans pCAO200SU1#12; assay: Sulfonylurea metabolism by washed cell suspension (Examples 6-9); format: in vitro ADME, Streptomyces lividans; conditions: substrate 10001
[2] = tested on: S. ambofaciens PH4002; assay: Metabolism of 10001 by untransformed strain (Example 14); format: in vitro ADME, Streptomyces ambofaciens; conditions: substrate 10001 120 ug/ml
[3] = tested on: Tomato seedlings (Lycopersicon esculentum cv. Pixie); assay: Tomato transplants in herbicide-treated soil after bacterial pretreatments (Example 18); format: in vivo; conditions: for Shoot Fresh Weight (mean of five plants): 22 days
Protocol: One liter cultures of S. griseolus ATCC 11796, S. lividans pCAO200, S. lividans pCAO200-#9-SU1-FeS-B or S. lividans pCAO200-#12-SU1 were grown in YEME medium (sporulation broth for the S. griseolus culture) at 30° C. until the cultures were in late log phase of growth and the absorbance of each culture in a spectrophotometer at a wavelength of 600 nm was between 1.0 and 1.3. Tomato seedlings (Lycopersicon esculentum cv. "Pixie") were seeded directly into soiless media, Oasis Wedges® (Smithers-Oasis, Kent, Ohio), fertilized with 500 ppm Peter's® fertilizer (20:19:18); and 300 ppm of iron was added weekly. As the tomato plants develop, roots ramify through the Oasis Wedges®. The tomato plants were transplanted to pots when they were 4 inches tall as follows.
Five inch standard round pots (without holes) were filled with Sassafras sandy loam (ph 6.7, 0.8% OM) and a single Oasis cube and then treated preemergence with either Classic® (10001) 25 DF (16, 32, 64, 125 and 250 grams active ingredient/hectare [g ai/ha]) or Oust® (10010) 75 DF at rates of 4, 8, 16, 32 and 64 g ai/ha), both herbicides available from E. I. du Pont de Nemours and Company, Wilmington, Del. The oasis cube was then removed and replaced by a transplant tomato dipped in either the cultures described above of S. griseolus ATCC 11796 (treatment A), S. lividans pCAO200 (treatment B), S. lividans pCAO200-#9-SU1-FeS-B (treatment C), S. lividans pCAO200-#12-SU1 (treatment D) or into water (treatment E). Five transplants were tested for each treatment at each dosage rate. The pots were placed on a greenhouse bench for 22 days and watered twice daily, after which shoot fresh weights of treatments were determined. Roots of these treatments and controls were examined too. Plants, soil and pots treated with bacterial cultures were double bagged and disposed by incineration.

[4] = tested on: S. griseolus ATCC 11796 induced with 10001; assay: Sulfonylurea metabolism by washed cell suspension (Examples 5-9); format: in vitro ADME, Streptomyces griseolus; conditions: substrate 10001
[5] = Incubation buffer without cells, time 0 (Examples 5-9, 11, 12); format: in vitro ADME; conditions: no cells, substrate 10001, 0 h
Protocol: A 100 ml culture of S. griseolus ATCC 11796 in sporulation broth and a 50 ml culture of S. lividans transformed with pCAO400 in YEME broth were prepared and incubated for 24 hours as described. At that time, the S. griseolus culture was split into two 50 ml aliquots into two separate flasks and 25 ml of fresh sporulation broth was added to each and 9 mg of […] was added to one of these cultures to induce cytochrome P450SU1 expression. Fresh YEME broth (25 ml) was added to the S. lividans culture. After an additional 6 hours growth at 30° C., the cells in each culture were harvested as described above, washed twice with MOPS (50 mM, pH 7.2) and recentrifuged. The cell pellets were resuspended in four cell volumes of MOPS (50 mM, pH 7.2) containing 0.2% glucose and about 100 μg/ml of 10004. These cell suspensions were incubated at 30° C. with shaking and aliqouts were taken at 2 and 5.5 hours. The supernatant of each aliquot was analyzed by HPLC and the concentrations of the sulfonylurea compound 10004 and its metabolite 10005 were determined.
S. lividans transformed respectively with pCAO200SU1-FeS-B#9, pCAO200SU#112and pCAO200 were cultured for 36 hours in 400 ml of YEME broth at 30° C. S. griseolus ATCC 11796 was similarly cultured in 400 ml of sporulation broth. Six hours before harvesting the cells, 150 ml of fresh YEME broth was added to the S. lividans cells, and the S. griseolus cells were split into two 200 ml cultures with 100 ml of fresh sporulation broth added to each. 10001 (36 mg) was added to one of the two S. griseolus cultures to induce cytochrome P450SU1. The cells were prepared as described above in Example 5 and the concentrations of the sulfonylurea compound 10006 and its metabolites 10007, 10008 or 10009 were determined.
S. lividans transformed with pCAO200SU2-FeS-A#11 and S. lividans transformed with pCAO200 were cultured for 36 hours in 400 ml of YEME broth at 30° C. S. griseolus PH2001 (mutant without SU1) was cultured in 400 ml of sporulation broth at 30° C. Nine hours before harvesting the cells, the S. griseolus PH2001 culture was divided into two 200 ml cultures. Both received 100 ml of fresh sporulation broth and one received 36 mg of 10001 to induce cytochrome P450SU2. The cells were prepared as described above in Example 6 and the concentrations of the sulfonylurea compound 10001 and its metabolites 10002 and 10003 were determined.

**Q.** Which concentration in supernatant ([1]; 4 h) does the source give for CCOC(=O)c1ccccc1S(=O)(=O)NC(=O)Nc1nc(Cl)cc(OC)n1 [compound 10001, N-[(4-chloro-6-methoxy-pyrimidin-2-yl)aminocarbonyl]-2-ethoxycarbonylbenzenesulfonamide] here?
**A.** The concentration in supernatant was 276 µM.

**Q.** What about the concentration in supernatant ([1]; 6 h) of the same compound?
**A.** The concentration in supernatant was 276 µM.

**Q.** What about the concentration in supernatant ([2]; 1.0 h) of the same compound?
**A.** Its concentration in supernatant is 406 µM.

**Q.** And the concentration in supernatant ([2]; 4.0 h)?
**A.** Its concentration in supernatant is 412 µM.

**Q.** What about the “Shoot Fresh Weight (mean of five plants)” value ([3]; 16 g ai/ha, Pretreatment A (Streptomyces griseolus ATCC11796)) of the same compound?
**A.** The value was 0.88 grams.

**Q.** What about the “Shoot Fresh Weight (mean of five plants)” value ([3]; 16 g ai/ha, Pretreatment B (Streptomyces lividans pCAO200)) of the same compound?
**A.** The value was 0.67 grams.

**Q.** And the “Shoot Fresh Weight (mean of five plants)” value ([3]; 16 g ai/ha, Pretreatment C (S. lividans pCAO200#9SU1-FeS-B))?
**A.** Its value is 1.63 grams.

**Q.** What about the “Shoot Fresh Weight (mean of five plants)” value ([3]; 16 g ai/ha, Pretreatment D (S. lividans pCAO200#12SU1)) of the same compound?
**A.** The value was 0.62 grams.

**Q.** What about the “Shoot Fresh Weight (mean of five plants)” value ([3]; 16 g ai/ha, Pretreatment E (water)) of the same compound?
**A.** Its value is 1.67 grams.

**Q.** And the “Shoot fresh weight in treatment C versus the other treatments” value ([3]; 32, 64 and 125 g ai/ha of 10001 or 16 and 32 g ai/ha of 10010)?
**A.** The value was 2-3 times greater.

**Q.** And the “Shoot Fresh Weight (mean of five plants)” value ([3]; 32 g ai/ha, Pretreatment A (Streptomyces griseolus ATCC11796))?
**A.** The value was 0.74 grams.

**Q.** What about the “Shoot Fresh Weight (mean of five plants)” value ([3]; 32 g ai/ha, Pretreatment B (Streptomyces lividans pCAO200)) of the same compound?
**A.** The value was 0.47 grams.

**Q.** And the “Shoot Fresh Weight (mean of five plants)” value ([3]; 32 g ai/ha, Pretreatment C (S. lividans pCAO200#9SU1-FeS-B))?
**A.** Its value is 1.62 grams.

**Q.** And the “Shoot Fresh Weight (mean of five plants)” value ([3]; 32 g ai/ha, Pretreatment D (S. lividans pCAO200#12SU1))?
**A.** Its value is 0.82 grams.

**Q.** And the “Shoot Fresh Weight (mean of five plants)” value ([3]; 32 g ai/ha, Pretreatment E (water))?
**A.** The value was 1.07 grams.

**Q.** And the “Shoot Fresh Weight (mean of five plants)” value ([3]; 64 g ai/ha, Pretreatment A (Streptomyces griseolus ATCC11796))?
**A.** The value was 0.21 grams.

**Q.** And the “Shoot Fresh Weight (mean of five plants)” value ([3]; 64 g ai/ha, Pretreatment B (Streptomyces lividans pCAO200))?
**A.** The value was 0.53 grams.

**Q.** What about the “Shoot Fresh Weight (mean of five plants)” value ([3]; 64 g ai/ha, Pretreatment C (S. lividans pCAO200#9SU1-FeS-B)) of the same compound?
**A.** Its value is 1.24 grams.

**Q.** What about the “Shoot Fresh Weight (mean of five plants)” value ([3]; 64 g ai/ha, Pretreatment D (S. lividans pCAO200#12SU1)) of the same compound?
**A.** Its value is 0.47 grams.

**Q.** And the “Shoot Fresh Weight (mean of five plants)” value ([3]; 64 g ai/ha, Pretreatment E (water))?
**A.** Its value is 0.46 grams.

**Q.** What about the “Shoot Fresh Weight (mean of five plants)” value ([3]; 125 g ai/ha, Pretreatment A (Streptomyces griseolus ATCC11796)) of the same compound?
**A.** Its value is 0.49 grams.

**Q.** And the “Shoot Fresh Weight (mean of five plants)” value ([3]; 125 g ai/ha, Pretreatment B (Streptomyces lividans pCAO200))?
**A.** The value was 0.38 grams.

**Q.** What about the “Shoot Fresh Weight (mean of five plants)” value ([3]; 125 g ai/ha, Pretreatment C (S. lividans pCAO200#9SU1-FeS-B)) of the same compound?
**A.** The value was 1.01 grams.

**Q.** And the “Shoot Fresh Weight (mean of five plants)” value ([3]; 125 g ai/ha, Pretreatment D (S. lividans pCAO200#12SU1))?
**A.** Its value is 0.35 grams.

**Q.** What about the “Shoot Fresh Weight (mean of five plants)” value ([3]; 125 g ai/ha, Pretreatment E (water)) of the same compound?
**A.** Its value is 0.23 grams.

**Q.** And the “Shoot Fresh Weight (mean of five plants)” value ([3]; 250 g ai/ha, Pretreatment A (Streptomyces griseolus ATCC11796))?
**A.** Its value is 0.44 grams.

**Q.** And the “Shoot Fresh Weight (mean of five plants)” value ([3]; 250 g ai/ha, Pretreatment B (Streptomyces lividans pCAO200))?
**A.** The value was 0.25 grams.

**Q.** What about the “Shoot Fresh Weight (mean of five plants)” value ([3]; 250 g ai/ha, Pretreatment C (S. lividans pCAO200#9SU1-FeS-B)) of the same compound?
**A.** Its value is 0.55 grams.

**Q.** What about the “Shoot Fresh Weight (mean of five plants)” value ([3]; 250 g ai/ha, Pretreatment D (S. lividans pCAO200#12SU1)) of the same compound?
**A.** Its value is 0.26 grams.

**Q.** And the “Shoot Fresh Weight (mean of five plants)” value ([3]; 250 g ai/ha, Pretreatment E (water))?
**A.** The value was 0.21 grams.

**Q.** And the concentration in supernatant ([4]; 2 h)?
**A.** Its concentration in supernatant is 220 µM.

**Q.** And the concentration in supernatant ([4]; 4 h)?
**A.** The concentration in supernatant was 36 µM.

**Q.** What about the concentration in supernatant ([4]; 6 h) of the same compound?
**A.** Its concentration in supernatant is 3 µM.

**Q.** What about the concentration in supernatant ([5]; Example 8) of the same compound?
**A.** The concentration in supernatant was 291 µM.

**Q.** What about the concentration in supernatant ([5]; Example 11) of the same compound?
**A.** Its concentration in supernatant is 279 µM.

Reference: patent US5349127A, “Expression of herbicide metabolizing cytochromes P450” (priority 1992, dated 1994)
